In general, logP refers to a log measure of how a compound divides between an organic and an aqueous phase.

Each structure is given as a SMILES string. Where a SMILES comes first, the peptide text is derived from it.

The results in this text go back to the OPERA property sets (Mansouri et al. 2018).

As to `CC(=O)NC(CC(C)C)C(=O)NC(Cc1ccccc1)C(=O)NC(CCCNC(=N)N)C(N)=O` (stereo not drawn) (Ac-Leu-Phe-Arg-NH2; configuration not given here), the logP was -0.12.

The compound `COc1ccc(C(=O)NP(=O)(N2CC2)N2CC2)cc1` displayed a log partition coefficient (logP) of 1.08.

`CC1=C(c2ccccc2)CCN(C)C1` returned a log partition coefficient (logP) of 3.18.

In turn, `Cc1cccc(C)c1NC(=O)c1ccc(CN2CCCC2)cc1` gave a logP of 3.14.

For `Cc1nc([N+](=O)[O-])c(Cl)n1C`, the logP came to 0.34.

The compound `C#CCOc1c(Cl)cc(NC=NOc2ccc(C)cc2)cc1Cl` yielded a lipophilicity (logP) of 4.8.

Turning to `CCOC(=O)Cc1ccc(O)c2ncccc12`, the logP stood at 2.26.

As for `CCC1COC(Cn2cncn2)(c2ccc([N+](=O)[O-])cc2)O1` (stereo not given), the log partition coefficient (logP) was determined as 1.52.

As for `CCCCCC(NC(C)=O)C(=O)OC` (stereo not given), the log partition coefficient (logP) is 1.28.

Compound `CSCCC(NC(C)=O)C(=O)NC(Cc1ccccc1)C(N)=O` (stereo not given) registered a logP of 0.42.

Consider `CC(CCC(N)=O)n1nnc2ccccc21` (stereo not given), for which the logP stood at 1.15.

`Cc1ncc(CO)c(COCCC(C)C)c1O` yielded a log partition coefficient (logP) of 0.83.

The compound `CC(C)(C)C(=O)OCn1cc2c(=O)[nH]cnc2n1` showed a logP of 0.79.

Compound `COC(=O)CCCCC(S)CCS` (stereo not given) came in with a log partition coefficient (logP) of 2.27.

Turning to `Cc1cccc(C)c1NC(=O)c1cccc(CN2CCCCC2)c1`, the lipophilicity (logP) stood at 3.47.

Regarding `CC(C)C(=O)Nc1cc(C(F)(F)F)ccc1S(N)(=O)=O`, the log partition coefficient (logP) was 2.45.

Take `N#CC(C#N)=NNc1ccccc1C(F)(F)F`: the lipophilicity (logP) came out at 4.2.

On to `CC(C1CC1)C(O)(Cn1cncn1)c1ccc(Cl)cc1` (stereo not given), for which the logP was 2.9.

On to `O=[N+]([O-])c1cnc(-c2ccc(F)cc2)[nH]1`, for which the logP was 1.52.

In the case of `CCOC(=O)Cn1ccnc1[N+](=O)[O-]`, the logP was found to be 0.33.

As for `CCN1C(=O)C(=O)c2cc(OC)c(OC)cc2C1=O`, the log partition coefficient (logP) amounted to 1.31.

On to `Cc1ccc(Cl)c(Cl)c1`, for which the logP came out at 3.95.

`CC1(C)COC(Cn2cncn2)(c2ccc(-n3ccnc3)cc2Cl)OC1` came in with a lipophilicity (logP) of 2.26.

Regarding `CCc1ccc(OCc2ccccc2CCCN2CCC(O)CC2)cc1`, the log partition coefficient (logP) came to 3.75.

Consider `CCCn1cnc2c(NC(C)=O)ncnc21`, for which the logP worked out at 0.09.

Consider `O=C(O)CCc1cc(=O)c2cc3c(cc2o1)CCCC3`, for which the logP is 2.85.

With `COC(=O)C1CC2C3CCC4=CC(=O)C=CC4(C)C3(F)C(O)CC2(C)C1C(=O)CO` (stereo not given), the logP came out at 1.78.

Regarding `Cc1ncc([N+](=O)[O-])n1CCOC(=O)N(C)C`, the logP stood at 0.47.

For `OC1CCN(CCCc2ccccc2CSc2ccccc2)CC1`, the lipophilicity (logP) came to 3.85.

`O=[N+]([O-])c1ncn(CC(F)(F)CO)n1` came in with a log partition coefficient (logP) of -0.21.

Compound `c1ccc(Cn2cnnn2)cc1` had a lipophilicity (logP) of 1.36.

Compound `C#CCC(O)(c1cccnc1)c1ccc2ccccc2c1` (stereo not given) came in with a logP of 2.14.

On to `CN(CC1(C)CCCO1)S(=O)(=O)c1ccc(Cl)c(S(N)(=O)=O)c1` (stereo not given), for which the logP amounted to 1.54.

`Cc1ccc(Cl)c(Cl)c1Cl`: the logP was 4.56.

`CC(=O)OC1CC(OC2CCC3(C)C(CCC4C3CC(O)C3(C)C(C5=CC(=O)OC5)CCC43O)C2)OC(C)C1OC1CC(O)C(OC2CC(O)C(O)C(C)O2)C(C)O1` (stereo not given): the log partition coefficient (logP) turned out to be 1.71.

With `CC(=O)NC(CCCCN)C(=O)NC(Cc1ccccc1)C(=O)NC(CC(C)C)C(N)=O` (stereo not drawn) (Ac-Lys-Phe-Leu-NH2; configuration not given here), the lipophilicity (logP) is 0.98.

The compound `CCN(C=Nc1ccn(C2OC(CO)C(O)C2O)c(=O)n1)CC` (stereo not given) came in with a logP of -0.76.

`Cc1cc(O)c(C)c(C)c1O` showed a log partition coefficient (logP) of 1.69.

As to `CCN(CC)N=Nc1ccccc1C(N)=O`, the logP was found to be 2.96.

Compound `N#CCc1ccc(C(=O)O)cc1` showed a log partition coefficient (logP) of 1.18.

`C[C@H](O)C(=O)Nc1c(I)c(C(=O)NC(CO)CO)c(I)c(C(=O)NC(CO)CO)c1I` yielded a logP of -2.42.

`CN(C)CCn1nnnc1SCC1=C(C(=O)OCOC(=O)C(C)(C)C)N2C(=O)C(NC(=O)Cc3csc(N)n3)C2SC1` (stereo not given) had a logP of 1.57.

`CCCCCOc1ccc(NC(=O)OCCN2CCOCC2)cc1` returned a lipophilicity (logP) of 3.96.

`CC(C)Oc1cccc(NC(=O)c2ccccc2C(F)(F)F)c1`: the log partition coefficient (logP) turned out to be 3.7.

On to `Nc1ncc(Cc2cccc(Cl)c2Cl)c(N)n1`, for which the logP was 2.81.

Regarding `Nc1ccccc1S(N)(=O)=O`, the logP came out at 0.22.

The compound `Cc1nonc1Cc1ccc([N+](=O)[O-])cc1` showed a lipophilicity (logP) of 2.21.

`CN(C)CCC[N+]1([O-])c2ccccc2Sc2ccccc21` displayed a log partition coefficient (logP) of 1.9.

`NS(=O)(=O)c1cc(S(=O)(=O)c2ccc(CN3CCOCC3)cc2)cs1` showed a lipophilicity (logP) of 0.98.

Regarding `CC(C)CCCNC(=O)C1(O)C(C)CC2C3CCC4=CC(=O)C=CC4(C)C3(F)C(O)CC21C` (stereo not given), the logP stood at 3.93.

`CCCCN(C)N=Nc1ccccc1C(N)=O` returned a logP of 3.52.

`CCC(C)NC(=O)C(Br)=Cc1ccccc1` (stereo not given) gave a lipophilicity (logP) of 2.66.

`Cc1nc([N+](=O)[O-])c(C)[nH]1` came in with a log partition coefficient (logP) of 0.43.

Turning to `Cc1n[nH]c(C(=O)NC2CCCCC2)c1[N+](=O)[O-]`, the log partition coefficient (logP) came out at 1.71.

As to `CCN(CC)C(=O)COC(=O)C(C)c1ccc2cc(OC)ccc2c1` (stereo not given), the logP is 3.32.

Regarding `Cc1cc([N+](=O)[O-])ccc1NN=C(C#N)C#N`, the logP stood at 3.55.

`c1ccc([C@H]2CN3CCSC3=N2)cc1`: the log partition coefficient (logP) was found to be 1.84.

`CCN(C)N=Nc1ccccc1C(N)=O`: the logP came to 2.59.

The compound `CSc1nc(Nc2ccc(Cl)cc2)nc(C(Cl)(Cl)Cl)n1` registered a logP of 5.71.

`CC(C)CC(C)CC(C)OC(=O)c1ccc(NC(=O)N(C)C)cc1Cl` (stereo not given) gave a logP of 5.15.

`CCCNc1nc(C(Cl)(Cl)Cl)nc(C(Cl)(Cl)Cl)n1` gave a logP of 4.09.

Take `Clc1cc(Cl)c(-c2cc(Cl)c(Cl)c(Cl)c2)cc1Cl`: the logP is 7.5.

As to `COc1ccc(COC(C(=O)O)c2ccccc2)cc1Cl` (stereo not given), the logP was 2.45.

Regarding `O=C1CC(Sc2ccncc2)N1` (stereo not given), the lipophilicity (logP) worked out at 0.61.

In turn, `Clc1ccc(-c2cc(Cl)c(Cl)c(Cl)c2Cl)cc1Cl` had a logP of 7.6.

The compound `Cc1ccc(C2(Cn3cncn3)OCCO2)cc1` showed a logP of 1.55.

Consider `CN(C)N=Nc1nccs1`, for which the log partition coefficient (logP) turned out to be 1.27.

Compound `COC1CC(OC2CCC3(C=O)C4CCC5(C)C(C6=CC(=O)OC6)CCC5(O)C4CCC3(O)C2)OCC1O` (stereo not given) registered a logP of 0.64.

`CC(=O)Nc1ccnnc1` gave a lipophilicity (logP) of -0.41.

As to `CCCCCOc1cccc(NC(=O)OCCN2CCOCC2)c1`, the logP amounted to 4.13.

On to `O=C1CC(Sc2nc3ccccc3s2)N1` (stereo not given), for which the lipophilicity (logP) stood at 2.3.

Take `c1ccc(Cn2ncnn2)cc1`: the logP was found to be 1.03.

The compound `O=P([O-])(Oc1ccc(Cl)cc1)Oc1ccc(Cl)cc1` registered a logP of 2.64.

As for `CC(O)COc1ccc(Cl)cc1` (stereo not given), the logP came out at 2.41.

Regarding `CCOC(=O)Cn1ccnc1C=Cc1ccc([N+](=O)[O-])o1`, the lipophilicity (logP) was determined as 1.27.

Regarding `Cn1c([N+](=O)[O-])cnc1-c1ccc(N)cc1`, the logP was 1.06.

Compound `O=c1[nH]c(Nc2ccccc2)nc2c1ncn2C1CC(O)C(CO)O1` (stereo not given) registered a log partition coefficient (logP) of 0.4.

In turn, `Clc1cc(Cl)c(Cl)c(-c2cc(Cl)c(Cl)cc2Cl)c1` had a logP of 7.12.

Compound `Oc1ccc(O)c2ncccc12` came in with a logP of 1.42.

On to `CC(C)(C)C(COc1ccc(C(F)(F)F)cc1)OC(=O)n1ccnc1` (stereo not given), for which the logP came to 4.15.
